How the values were obtained:
IKZF2 = IKZF2 (Homo sapiens (Human), UniProt Q96SW2+Q9UKS7); assay: In vitro IKZF2 HiBit Assay (HEK293T Flp-in-HiBiT cells); type: cell-based; conditions: HEK293T Flp-in-HiBiT cells, 6 hrs incubation; for DC50: read-out: IKZF2 HiBit DC50; for Dmax: HEK-293T, read-out: IKZF2 HiBit Dmax (%)
Procedure, shortened: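 Remaining tagged Helios was read as lytic HiBiT/LgBiT luminescence normalized to DMSO, yielding binned DC50 and Dmax values. Treatment ran 6 h, with compounds at 11 three-fold doses diluted from 1 mM and 0.1% final DMSO. The cells were HEK293T Flp-in with CRISPR knock-in of HiBiT at the IKZF2 N-terminus.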

IKZF1 = IKZF1 (Homo sapiens (Human), UniProt Q13422+Q96SW2); assay: In vitro IKZF1 HiBit Assay (HEK293T Flp-in-HiBiT-IKZF1 stable cell line); type: cell-based; conditions: HEK293T Flp-in-HiBiT-IKZF1 stable cell line, 6 hrs incubation; for DC50: read-out: IKZF1 HiBit DC50; for Dmax: HEK-293T, read-out: IKZF1 HiBit Dmax (%)
Sequence of IKZF1 (Q13422 whole entry): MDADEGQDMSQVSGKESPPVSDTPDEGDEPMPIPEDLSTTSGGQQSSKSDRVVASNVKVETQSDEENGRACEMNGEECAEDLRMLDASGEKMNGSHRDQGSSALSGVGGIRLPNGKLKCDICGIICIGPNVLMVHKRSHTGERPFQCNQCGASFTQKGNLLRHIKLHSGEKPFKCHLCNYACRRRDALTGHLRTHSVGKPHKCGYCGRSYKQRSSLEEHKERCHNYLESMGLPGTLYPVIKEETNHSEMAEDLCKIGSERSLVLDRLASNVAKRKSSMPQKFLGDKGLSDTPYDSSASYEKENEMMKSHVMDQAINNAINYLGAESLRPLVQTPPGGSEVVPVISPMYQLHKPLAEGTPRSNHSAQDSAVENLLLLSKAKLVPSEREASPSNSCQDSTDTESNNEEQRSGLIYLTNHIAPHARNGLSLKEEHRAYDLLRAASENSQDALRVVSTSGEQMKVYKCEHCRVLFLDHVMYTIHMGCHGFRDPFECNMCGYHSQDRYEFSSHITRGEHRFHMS
Sequence of IKZF1 (Q96SW2 whole entry): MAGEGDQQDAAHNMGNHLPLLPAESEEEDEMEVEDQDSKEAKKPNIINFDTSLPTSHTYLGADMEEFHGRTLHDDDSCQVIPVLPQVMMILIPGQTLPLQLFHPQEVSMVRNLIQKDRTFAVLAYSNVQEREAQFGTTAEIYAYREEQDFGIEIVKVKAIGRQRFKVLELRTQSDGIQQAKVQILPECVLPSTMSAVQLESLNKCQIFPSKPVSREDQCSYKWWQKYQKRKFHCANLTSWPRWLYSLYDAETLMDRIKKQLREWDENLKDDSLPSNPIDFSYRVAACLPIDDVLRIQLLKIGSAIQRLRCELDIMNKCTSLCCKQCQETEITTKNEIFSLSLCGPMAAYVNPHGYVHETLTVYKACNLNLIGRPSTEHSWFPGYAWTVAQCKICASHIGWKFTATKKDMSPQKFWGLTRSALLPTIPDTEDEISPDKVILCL
Sequence of IKZF1 (Q16531 2-1140 partner): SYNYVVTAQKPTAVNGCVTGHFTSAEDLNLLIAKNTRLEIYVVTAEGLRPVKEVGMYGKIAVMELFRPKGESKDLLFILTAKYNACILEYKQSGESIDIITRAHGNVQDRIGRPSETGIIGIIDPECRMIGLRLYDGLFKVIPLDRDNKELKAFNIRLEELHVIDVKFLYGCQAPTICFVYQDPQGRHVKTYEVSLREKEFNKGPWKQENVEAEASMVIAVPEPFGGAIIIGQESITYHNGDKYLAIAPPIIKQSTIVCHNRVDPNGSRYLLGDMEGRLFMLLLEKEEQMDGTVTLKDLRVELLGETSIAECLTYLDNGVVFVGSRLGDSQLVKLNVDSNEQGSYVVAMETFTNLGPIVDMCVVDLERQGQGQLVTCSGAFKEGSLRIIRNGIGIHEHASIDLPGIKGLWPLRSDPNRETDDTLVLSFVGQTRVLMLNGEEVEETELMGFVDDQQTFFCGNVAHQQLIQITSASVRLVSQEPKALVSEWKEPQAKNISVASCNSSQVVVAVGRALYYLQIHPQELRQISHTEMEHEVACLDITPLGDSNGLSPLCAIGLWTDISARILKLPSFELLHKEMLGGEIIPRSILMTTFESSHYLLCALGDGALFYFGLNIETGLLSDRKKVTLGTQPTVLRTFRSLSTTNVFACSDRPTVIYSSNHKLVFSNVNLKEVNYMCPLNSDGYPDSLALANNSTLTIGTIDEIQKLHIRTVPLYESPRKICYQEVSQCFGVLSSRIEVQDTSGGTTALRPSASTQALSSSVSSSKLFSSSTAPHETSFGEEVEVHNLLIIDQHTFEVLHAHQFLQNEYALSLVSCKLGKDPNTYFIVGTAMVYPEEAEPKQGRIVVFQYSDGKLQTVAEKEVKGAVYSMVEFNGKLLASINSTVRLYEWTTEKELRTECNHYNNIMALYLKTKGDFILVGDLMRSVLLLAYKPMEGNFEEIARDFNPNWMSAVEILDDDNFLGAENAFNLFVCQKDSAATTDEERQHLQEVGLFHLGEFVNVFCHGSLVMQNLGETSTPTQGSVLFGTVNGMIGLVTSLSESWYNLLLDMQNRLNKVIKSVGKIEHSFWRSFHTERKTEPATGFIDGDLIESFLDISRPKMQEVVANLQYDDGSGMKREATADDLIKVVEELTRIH
Procedure, shortened: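 Degradation was measured as loss of luminescence from the HiBiT-IKZF1 tag after 6 h compound treatment, with 0.1% final DMSO, in stable HEK293T Flp-in cells. Values were normalized to DMSO, giving the 50% degradation concentration and the maximal degradation range.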

CRBN/DDB1 = CRBN/DDB1 (Homo sapiens (Human), UniProt Q96SW2); assay: IC50 measurements for binding to CRBN/DDB1 (HTRF); conditions: His tagged CRBN+DDB, Cy5-labeled Thalidomide probe, one hour
Sequence of CRBN/DDB1 (Q96SW2 whole entry, species assumed): as the sequence (Q96SW2 whole entry) above
Sequence of CRBN/DDB1 (Q16531 whole entry partner, species assumed): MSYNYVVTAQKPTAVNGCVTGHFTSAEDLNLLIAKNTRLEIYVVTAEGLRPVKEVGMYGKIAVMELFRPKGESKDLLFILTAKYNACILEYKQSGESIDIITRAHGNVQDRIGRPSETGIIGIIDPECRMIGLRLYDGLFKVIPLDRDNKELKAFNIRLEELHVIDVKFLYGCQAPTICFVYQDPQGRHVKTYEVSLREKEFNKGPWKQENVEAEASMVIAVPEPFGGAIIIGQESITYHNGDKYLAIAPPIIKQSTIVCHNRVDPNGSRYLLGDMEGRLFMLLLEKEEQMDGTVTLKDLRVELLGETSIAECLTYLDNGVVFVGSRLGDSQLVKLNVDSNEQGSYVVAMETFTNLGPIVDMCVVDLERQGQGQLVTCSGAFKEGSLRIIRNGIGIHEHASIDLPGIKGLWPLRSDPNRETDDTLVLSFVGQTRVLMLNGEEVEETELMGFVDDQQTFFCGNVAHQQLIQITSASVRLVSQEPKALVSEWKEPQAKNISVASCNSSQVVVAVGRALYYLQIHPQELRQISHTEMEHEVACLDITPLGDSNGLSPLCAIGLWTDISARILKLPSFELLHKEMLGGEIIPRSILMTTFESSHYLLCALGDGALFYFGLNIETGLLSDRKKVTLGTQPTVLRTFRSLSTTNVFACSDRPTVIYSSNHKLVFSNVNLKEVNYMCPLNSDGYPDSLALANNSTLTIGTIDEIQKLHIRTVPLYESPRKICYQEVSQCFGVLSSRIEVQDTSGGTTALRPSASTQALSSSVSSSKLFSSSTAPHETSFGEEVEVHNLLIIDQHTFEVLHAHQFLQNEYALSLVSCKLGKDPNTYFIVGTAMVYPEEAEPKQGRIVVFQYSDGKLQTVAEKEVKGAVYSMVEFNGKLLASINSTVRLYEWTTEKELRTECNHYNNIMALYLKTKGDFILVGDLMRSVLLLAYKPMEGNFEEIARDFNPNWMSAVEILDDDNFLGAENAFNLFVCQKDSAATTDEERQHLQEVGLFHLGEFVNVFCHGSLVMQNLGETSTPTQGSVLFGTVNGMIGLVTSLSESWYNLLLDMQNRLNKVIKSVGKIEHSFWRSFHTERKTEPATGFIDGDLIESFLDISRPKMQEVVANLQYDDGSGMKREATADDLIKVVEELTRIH
Procedure, shortened: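 Serially diluted compounds compete with a Cy5-labeled thalidomide tracer (60 nM) for His-tagged CRBN-DDB1 (2 nM), detected via anti-6His Tb cryptate (0.4 nM); buffer HEPES pH 7.5 with TCEP, Brij-35, NaCl, BSA. One-hour room-temperature incubation, HTRF signal read, IC50 by four-parameter curve.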

Sequence of IKZF2 (Q9UKS7 whole entry): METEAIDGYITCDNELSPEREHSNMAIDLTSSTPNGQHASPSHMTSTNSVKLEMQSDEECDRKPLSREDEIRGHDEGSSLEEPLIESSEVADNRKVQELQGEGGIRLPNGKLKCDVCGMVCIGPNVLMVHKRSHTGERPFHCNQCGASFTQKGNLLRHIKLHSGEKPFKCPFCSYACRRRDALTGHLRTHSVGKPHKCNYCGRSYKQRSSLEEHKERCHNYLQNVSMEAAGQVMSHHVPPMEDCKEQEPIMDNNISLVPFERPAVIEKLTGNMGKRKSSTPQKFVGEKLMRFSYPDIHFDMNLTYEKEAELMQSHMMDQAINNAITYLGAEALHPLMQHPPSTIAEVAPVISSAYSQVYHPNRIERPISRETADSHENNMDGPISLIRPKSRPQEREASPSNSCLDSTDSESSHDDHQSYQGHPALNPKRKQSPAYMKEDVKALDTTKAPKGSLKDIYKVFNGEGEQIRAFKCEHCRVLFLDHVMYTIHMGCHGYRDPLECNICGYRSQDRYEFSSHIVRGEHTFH
Sequence of IKZF2 (Q96SW2 whole entry): as the sequence (Q96SW2 whole entry) above
Sequence of IKZF2 (Q16531 2-1140 partner): as the sequence (Q16531 2-1140 partner) above

Structure (SMILES) | DC50 (IKZF2) | Dmax (IKZF2) | DC50 (IKZF1) | Dmax (IKZF1) | IC50 (CRBN/DDB1)
Cn1ccc2c(CN3CCCC3)cc(-c3ccc4c(c3F)CN(C3CCC(=O)NC3=O)C4=O)nc21 (stereo not shown) [Example 75, 3-(4-fluoro-5-(1-methyl-4-(pyrrolidin-1-ylmethyl)-1H-pyrrolo[2,3-b]pyridin-6-yl)-1-oxoisoindolin-2-yl) piperidine-2,6-dione] | < 1 nM | > 80% | > 10000 nM | 20 to 40% | 100 to 500 nM
O=C1CCC(N2Cc3cc(-c4cc(CN5CCC(O)CC5)c5cc[nH]c5n4)ccc3C2=O)C(=O)N1 (stereo not shown) [Example 125, 3-(5-(4-((4-hydroxypiperidin-1-yl)methyl)-1H-pyrrolo[2,3-b]pyridin-6-yl)-1-oxoisoindolin-2-yl) piperidine-2,6-dione] | 10 to 100 nM | > 80% | 100 to 1000 nM | 20 to 40% | 100 to 500 nM
Cn1ccc2c(CN3CCC(F)(F)CC3)cc(-c3ccc4c(c3)CN(C3CCC(=O)NC3=O)C4=O)nc21 (stereo not shown) [Example 60, 3-(5-(4-((4,4-difluoropiperidin-1-yl)methyl)-1-methyl-1H-pyrrolo[2,3-b]pyridin-6-yl)-1-oxoisoindolin-2-yl) piperidine-2,6-dione] | 1 to 10 nM | 60 to 80% | > 10000 nM | < 20% | 500 to 1000 nM
Cn1ccc2c(CN3CCCC3(C)C)cc(-c3ccc4c(c3)CN(C3CCC(=O)NC3=O)C4=O)nc21 (stereo not shown) [Example 113, 3-(5-(4-((2,2-dimethylpyrrolidin-1-yl)methyl)-1-methyl-1H-pyrrolo[2,3-b]pyridin-6-yl)-1-oxoisoindolin-2-yl) piperidine-2,6-dione] | < 1 nM | 60 to 80% | 10 to 100 nM | 20 to 40% | 1000 to 5000 nM
CC(c1cc(-c2ccc3c(c2)CN(C2CCC(=O)NC2=O)C3=O)nc2c1ccn2C)N1CCCC1 (stereo not shown) [Example 87, 3-(5-(1-methyl-4-(1-(pyrrolidin-1-yl)ethyl)-1H-pyrrolo[2,3-b]pyridin-6-yl)-1-oxoisoindolin-2-yl) piperidine-2,6-dione] | 100 to 1000 nM | < 20% | > 10000 nM | < 20% | 100 to 500 nM
CC(C)n1ccc2nc(-c3ccc4c(c3)CN(C3CCC(=O)NC3=O)C4=O)cc(CN3CCCC3)c21 (stereo not shown) [Example 172, 3-(5-(1-isopropyl-7-(pyrrolidin-1-ylmethyl)-1H-pyrrolo[3,2-b]pyridin-5-yl)-1-oxoisoindolin-2-yl) piperidine-2,6-dione] | 10 to 100 nM | 60 to 80% | 100 to 1000 nM | 20 to 40% | 1000 to 5000 nM
O=C1CCC(N2Cc3cc(-c4cc(CN5CCCC5)c5cc[nH]c5n4)c(F)cc3C2=O)C(=O)N1 (stereo not shown) [Example 122, 3-(6-fluoro-1-oxo-5-(4-(pyrrolidin-1-ylmethyl)-1H-pyrrolo[2,3-b]pyridin-6-yl)isoindolin-2-yl) piperidine-2,6-dione] | 100 to 1000 nM | 20 to 40% | 1 to 10 nM | 20 to 40% | 1000 to 5000 nM
Cn1ccc2c(O[C@@H]3CCNC3)cc(-c3ccc4c(c3)CN([C@H]3CCC(=O)NC3=O)C4=O)nc21 [Example 219, (S)-3-(5-(1-methyl-4-(((R)-pyrrolidin-3-yl)oxy)-1H-pyrrolo[2,3-b]pyridin-6-yl)-1-oxoisoindolin-2-yl) piperidine-2,6-dione] | 10 to 100 nM | 40 to 60% | 100 to 1000 nM | 20 to 40% | 1000 to 5000 nM
Nc1n[nH]c2c(CN3CC(O)C3)cc(-c3ccc4c(c3)CN(C3CCC(=O)NC3=O)C4=O)nc12 (stereo not shown) [Example 213, 3-(5-(3-amino-7-((3-hydroxyazetidin-1-yl)methyl)-1H-pyrazolo[4,3-b]pyridin-5-yl)-1-oxoisoindolin-2-yl) piperidine-2,6-dione] | 100 to 1000 nM | 40 to 60% | 1 to 10 nM | 20 to 40% | 100 to 500 nM
COC1CN(Cc2cc(-c3ccc4c(c3)CN(C3CCC(=O)NC3=O)C4=O)nc3c2ccn3C)C1 (stereo not shown) [Example 85, 3-(5-(4-((3-methoxyazetidin-1-yl)methyl)-1-methyl-1H-pyrrolo[2,3-b]pyridin-6-yl)-1-oxoisoindolin-2-yl) piperidine-2,6-dione] | 1 to 10 nM | > 80% | 1 to 10 nM | 20 to 40% | 100 to 500 nM
CN(C)C(=O)CC1CCN(Cc2cc(-c3ccc4c(c3)CN(C3CCC(=O)NC3=O)C4=O)nc3[nH]ccc23)C1 (stereo not shown) [Example 167, 2-(1-((6-(2-(2,6-dioxopiperidin-3-yl)-1-oxoisoindolin-5-yl)-1H-pyrrolo[2,3-b]pyridin-4-yl)methyl)pyrrolidin-3-yl)-N,N-dimethylacetamide] | 10 to 100 nM | 60 to 80% | 100 to 1000 nM | 20 to 40% | 100 to 500 nM
Cn1ccc2c(CN3CCc4ccccc4C3)cc(-c3ccc4c(c3)CN(C3CCC(=O)NC3=O)C4=O)nc21 (stereo not shown) [Example 65, 3-(5-(4-((3,4-dihydroisoquinolin-2 (1H)-yl)methyl)-1-methyl-1H-pyrrolo[2,3-b]pyridin-6-yl)-1-oxoisoindolin-2-yl) piperidine-2,6-dione] | 1 to 10 nM | > 80% | > 10000 nM | 20 to 40% | 100 to 500 nM
Cn1ccc2c(CN3CCC(n4ccnc4)CC3)cc(-c3ccc4c(c3)CN(C3CCC(=O)NC3=O)C4=O)nc21 (stereo not shown) [Example 115, 3-(5-(4-((4-(1HIimidazol-1-yl)piperidin-1-yl)methyl)-1-methyl-1H-pyrrolo[2,3-b]pyridin-6-yl)-1-oxoisoindolin-2-yl) piperidine-2,6-dione] | 10 to 100 nM | 60 to 80% | > 10000 nM | < 20% | 500 to 1000 nM
Cn1cc2c(CN3CCCC3)cc(-c3ccc4c(c3)CN(C3CCC(=O)NC3=O)C4=O)nc2n1 (stereo not shown) [Example 315, 3-(5-(2-methyl-4-(pyrrolidin-1-ylmethyl)-2H-pyrazolo[3,4-b]pyridin-6-yl)-1-oxoisoindolin-2-yl) piperidine-2,6-dione] | 10 to 100 nM | > 80% | 10 to 100 nM | 20 to 40% | 100 to 500 nM
COC1CCN(Cc2cc(-c3ccc4c(c3)CN(C3CCC(=O)NC3=O)C4=O)nc3c2ccn3C)CC1 (stereo not shown) [Example 102, 3-(5-(4-((4-methoxypiperidin-1-yl)methyl)-1-methyl-1H-pyrrolo[2,3-b]pyridin-6-yl)-1-oxoisoindolin-2-yl) piperidine-2,6-dione] | < 1 nM | > 80% | 10 to 100 nM | 20 to 40% | 100 to 500 nM
Cn1ccc2c(CN3CCC(O)CC3)cc(-c3ccc4c(c3)CN(C3CCC(=O)NC3=O)C4=O)nc21 (stereo not shown) [Example 305, 3-(5-(4-((4-hydroxypiperidin-1-yl)methyl)-1-methyl-1H-pyrrolo[2,3-b]pyridin-6-yl)-1-oxoisoindolin-2-yl) piperidine-2,6-dione] | 1 to 10 nM | > 80% | > 10000 nM | < 20% | 1000 to 5000 nM
CC(C)Oc1n[nH]c2c(CN3CCCC3)cc(-c3ccc4c(c3)CN(C3CCC(=O)NC3=O)C4=O)nc12 (stereo not shown) [Example 238, 3-(5-(3-isopropoxy-7-(pyrrolidin-1-ylmethyl)-1H-pyrazolo[4,3-b]pyridin-5-yl)-1-oxoisoindolin-2-yl) piperidine-2,6-dione] | < 1 nM | 60 to 80% | > 10000 nM | < 20% | 1000 to 5000 nM
CC1CCN(Cc2cc(-c3ccc4c(c3)CN(C3CCC(=O)NC3=O)C4=O)nc3c2ccn3C)CC1 (stereo not shown) [Example 81, 3-(5-(1-methyl-4-((4-methylpiperidin-1-yl)methyl)-1H-pyrrolo[2,3-b]pyridin-6-yl)-1-oxoisoindolin-2-yl) piperidine-2,6-dione] | < 1 nM | > 80% | 10 to 100 nM | 40 to 60% | 5000 to 10000 nM
CCn1ccc2c(CN3CCCC3)cc(-c3ccc4c(c3)CN(C3CCC(=O)NC3=O)C4=O)nc21 (stereo not shown) [Example 74, 3-(5-(1-ethyl-4-(pyrrolidin-1-ylmethyl)-1H-pyrrolo[2,3-b]pyridin-6-yl)-1-oxoisoindolin-2-yl) piperidine-2,6-dione] | 1 to 10 nM | > 80% | > 10000 nM | < 20% | 500 to 1000 nM
Cn1ccc2c(CN3CCCC3CO)cc(-c3ccc4c(c3)CN(C3CCC(=O)NC3=O)C4=O)nc21 (stereo not shown) [Example 101, 3-(5-(4-((2-(hydroxymethyl)pyrrolidin-1-yl)methyl)-1-methyl-1H-pyrrolo[2,3-b]pyridin-6-yl)-1-oxoisoindolin-2-yl) piperidine-2,6-dione] | 1 to 10 nM | > 80% | > 10000 nM | < 20% | 100 to 500 nM
